Results published in ChEMBL document CHEMBL3734732, “Pyrrole- and indole-containing tranylcypromine derivatives as novel lysine-specific demethylase 1 inhibitors active on cancer cells” (Medchemcomm, 2015).

Experiments:
LSD1/CoREST complex = LSD1/CoREST complex (Homo sapiens, UniProt O60341); experiment: Inhibition of human recombinant LSD1/CoREST protein expressed in Escherichia coli using monomethylated H3-K4 peptide (21 amino acids) as substrate preincubated for 15 mins followed by substrate addition measured for 12 mins by HRP-coupled Ultrared detection system-based fluorescence analysis
[1] = target: LSD1/CoREST complex (Homo sapiens) (UniProt O60341+Q9UKL0); experiment: Potency index, ratio of trans-benzyl 1-(4-(2-aminocyclopropyl)phenylamino)-1-oxo-3-phenylpropan-2-ylcarbamate hydrochloride IC50 to compound IC50 for human recombinant LSD1/CoREST protein expressed in Escherichia coli
LSD1/CoREST complex (Homo sapiens), sequence (Q9UKL0 whole entry, looked up, other chains not shown): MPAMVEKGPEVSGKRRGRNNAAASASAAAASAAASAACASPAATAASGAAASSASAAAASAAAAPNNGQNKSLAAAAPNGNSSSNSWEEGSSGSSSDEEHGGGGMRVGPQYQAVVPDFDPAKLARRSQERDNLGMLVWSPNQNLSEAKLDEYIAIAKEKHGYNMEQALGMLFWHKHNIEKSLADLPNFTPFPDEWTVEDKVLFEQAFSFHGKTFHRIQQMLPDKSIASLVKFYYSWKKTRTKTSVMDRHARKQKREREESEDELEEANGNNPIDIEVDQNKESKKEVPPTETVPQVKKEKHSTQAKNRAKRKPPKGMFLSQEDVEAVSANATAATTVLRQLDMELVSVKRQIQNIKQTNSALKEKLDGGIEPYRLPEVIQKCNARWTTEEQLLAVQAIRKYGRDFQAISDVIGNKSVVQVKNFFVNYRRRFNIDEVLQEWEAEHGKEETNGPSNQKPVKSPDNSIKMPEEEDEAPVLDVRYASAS

[2] = target: Lysine-specific histone demethylase 1A (Homo sapiens) (UniProt O60341); experiment: Inhibition of LSD1 in human NB4 cells assessed as induction of ITGAM mRNA expression at IC50 after 24 hrs by quantitative RT-PCR analysis relative to vehicle-treated control; assay type: cell-based; details: NB-4
[3] = target: T1, Amine oxidase [flavin-containing] A (Homo sapiens, UniProt P21397); experiment: Inhibition of human recombinant MAO A expressed in Pichia pastoris using kynuramine as substrate preincubated for 15 mins followed by substrate addition by horseradish peroxidase coupled-spectrofluorimetric assay
T1 sequence (P21397 whole entry): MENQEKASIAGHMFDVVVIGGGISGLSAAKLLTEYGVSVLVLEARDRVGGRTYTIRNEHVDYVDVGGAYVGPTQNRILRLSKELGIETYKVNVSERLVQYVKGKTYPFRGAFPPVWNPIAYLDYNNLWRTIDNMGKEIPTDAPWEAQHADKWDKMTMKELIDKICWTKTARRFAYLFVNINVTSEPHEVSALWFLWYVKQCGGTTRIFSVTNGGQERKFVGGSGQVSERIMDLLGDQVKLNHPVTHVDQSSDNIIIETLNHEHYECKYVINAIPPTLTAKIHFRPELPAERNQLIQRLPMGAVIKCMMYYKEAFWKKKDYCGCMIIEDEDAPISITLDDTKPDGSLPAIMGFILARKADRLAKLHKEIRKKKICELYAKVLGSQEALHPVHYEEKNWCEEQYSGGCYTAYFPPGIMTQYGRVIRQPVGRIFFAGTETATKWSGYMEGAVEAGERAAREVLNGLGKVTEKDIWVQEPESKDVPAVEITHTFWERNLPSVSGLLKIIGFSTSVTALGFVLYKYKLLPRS

[4] = target: T2, Amine oxidase [flavin-containing] B (Homo sapiens, UniProt P27338); experiment: Inhibition of human recombinant MAO B expressed in Pichia pastoris using benzylamine as substrate preincubated for 15 mins followed by substrate addition by horseradish peroxidase coupled-spectrofluorimetric assay
T2 sequence (P27338 whole entry): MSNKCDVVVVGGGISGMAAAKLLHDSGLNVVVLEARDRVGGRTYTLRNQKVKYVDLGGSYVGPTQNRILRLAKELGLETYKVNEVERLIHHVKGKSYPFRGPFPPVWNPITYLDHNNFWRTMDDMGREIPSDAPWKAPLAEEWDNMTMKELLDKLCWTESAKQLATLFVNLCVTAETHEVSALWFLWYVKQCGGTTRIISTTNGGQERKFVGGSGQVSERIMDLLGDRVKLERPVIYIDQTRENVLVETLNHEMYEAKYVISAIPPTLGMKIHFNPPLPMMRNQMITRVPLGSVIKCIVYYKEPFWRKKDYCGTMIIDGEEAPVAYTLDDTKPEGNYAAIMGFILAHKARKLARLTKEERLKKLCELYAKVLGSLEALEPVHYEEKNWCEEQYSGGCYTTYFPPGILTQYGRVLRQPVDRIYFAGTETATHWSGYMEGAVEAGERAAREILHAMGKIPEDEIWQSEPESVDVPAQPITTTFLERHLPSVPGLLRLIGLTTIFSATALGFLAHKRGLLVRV

[5] = target: Lysine-specific histone demethylase 1A (Homo sapiens) (UniProt O60341); experiment: Inhibition of LSD1 in human NB4 cells assessed as induction of GFI-1b mRNA expression at IC50 after 24 hrs by quantitative RT-PCR analysis relative to vehicle-treated control; assay type: cell-based; details: NB-4
MV4-11 [6] = experiment: Cytotoxicity against human MV4-11 cells assessed as growth inhibition after 72 hrs by CellTiter-Fluor Cell Viability assay; assay type: functional, cell-based; details: MV4-11, 72 h
[7] = Cytotoxicity against human NB4 cells assessed as growth inhibition after 72 hrs by CellTiter-Fluor Cell Viability assay; assay type: functional, cell-based; details: NB-4, 72 h
MV4-11 [8] = experiment: Potency index, ratio of trans-benzyl 1-(4-(2-aminocyclopropyl)phenylamino)-1-oxo-3-phenylpropan-2-ylcarbamate hydrochloride IC50 to compound IC50 for human MV4-11 cells; assay type: functional
NB-4 = experiment: Potency index, ratio of trans-benzyl 1-(4-(2-aminocyclopropyl)phenylamino)-1-oxo-3-phenylpropan-2-ylcarbamate hydrochloride IC50 to compound IC50 for human NB4 cells; assay type: functional
Homo sapiens = organism: Homo sapiens; experiment: Selectivity ratio of IC50 for human recombinant MAO A to IC50 for human recombinant LSD1/CoREST
[9] = Cytotoxicity against human NB4 cells assessed as growth inhibition at 100 uM after 72 hrs by CellTiter-Fluor Cell Viability assay; assay type: functional; details: NB-4, 72 h

Compound	IC50 (LSD1/CoREST complex)	Ratio IC50 [1]	fold change (FC) [2]	IC50 [3]	IC50 [4]	fold change (FC) [5]	IC50 (MV4-11 [6])	IC50 [7]	Ratio IC50 (MV4-11 [8])	Ratio IC50 (NB-4)	Ratio IC50 (Homo sapiens)	inhibition at 100 µM [9]
Cl.N[C@@H]1C[C@H]1c1ccc(NC(=O)c2cn(C(=O)OCc3ccccc3)c3ccccc23)cc1 (relative stereo)	86 nM	1.7	< 4	460 nM	> 70000 nM	< 6	2500 nM	9300 nM	2	2	< 8	–
N[C@@H]1C[C@H]1c1ccc(NC(=O)C(Cc2ccccc2)NC(=O)OCc2ccccc2)cc1 (relative stereo)	–	–	–	–	–	–	10200 nM	17400 nM	–	–	–	–
N[C@@H]1C[C@H]1c1ccc(NC(=O)c2cc3ccccc3n2CC(=O)NCc2ccccc2)cc1 (relative stereo)	308 nM	–	–	–	–	–	–	–	–	–	–	–
N[C@@H]1C[C@H]1c1ccc(NC(=O)c2cc3ccccc3[nH]2)cc1	65 nM	2	< 4	–	–	< 6	–	–	–	–	–	–
N[C@@H]1C[C@H]1c1ccc(NC(=O)c2cc3ccccc3n2CC(=O)Nc2ccccc2)cc1 (relative stereo)	87 nM	2	< 4	–	–	< 6	–	–	–	–	–	–
N[C@@H]1C[C@H]1c1ccc(NC(=O)C2CCCN2C(=O)OCc2ccccc2)cc1 (relative stereo)	61 nM	2	–	–	–	–	–	–	–	–	–	–
N[C@@H]1C[C@H]1c1ccc(NC(=O)c2cccn2CC(=O)Nc2ccccc2)cc1 (relative stereo)	125 nM	–	< 4	–	–	< 6	–	–	–	–	–	–
N[C@@H]1C[C@H]1c1ccc(NC(=O)c2cccn2C(=O)OCc2ccccc2)cc1 (relative stereo)	32 nM	5	< 4	260 nM	75800 nM	< 6	6800 nM	–	–	–	< 8	56%
N[C@@H]1C[C@H]1c1ccc(NC(=O)c2cccn2CC(=O)NCc2ccccc2)cc1 (relative stereo)	155 nM	–	< 4	–	–	< 6	–	–	–	–	–	–
Cl.N[C@@H]1C[C@H]1c1ccc(NC(=O)c2cc3ccccc3n2C(=O)OCc2ccccc2)cc1 (relative stereo)	40 nM	3.7	< 4	160 nM	> 60000 nM	< 6	5900 nM	6500 nM	2	2	< 8	–
N[C@@H]1C[C@H]1c1ccc(NC(=O)c2cccn2CC(=O)c2ccccc2)cc1 (relative stereo)	1320 nM	–	–	–	–	–	–	–	–	–	–	–
N[C@@H]1C[C@H]1c1ccc(NC(=O)c2ccn(C(=O)OCc3ccccc3)c2)cc1	50 nM	3	< 4	110 nM	3900 nM	< 6	15200 nM	22300 nM	–	–	< 8	–
N[C@@H]1C[C@H]1c1ccc(NC(=O)c2cc3ccccc3n2CC(=O)c2ccccc2)cc1 (relative stereo)	853 nM	–	–	–	–	–	–	–	–	–	–	–
N[C@@H]1C[C@H]1c1ccc(NC(=O)c2ccc[nH]2)cc1	163 nM	–	< 4	–	–	< 6	–	–	–	–	–	–
N[C@@H]1C[C@H]1c1ccc(NC(=O)CNC(=O)OCc2ccccc2)cc1 (relative stereo)	304 nM	–	–	–	–	–	–	–	–	–	–	–
